Data taken from ChEMBL document CHEMBL2311454, “Discovery and evaluation of novel inhibitors of mycobacterium protein tyrosine phosphatase B from the 6-Hydroxy-benzofuran-5-carboxylic acid scaffold” (J Med Chem, 2013).

Experiments:
[1] = target: Receptor-type tyrosine-protein phosphatase F (Homo sapiens, UniProt P10586); experiment: Inhibition of LAR (unknown origin) expressed in Escherichia coli using pNPP substrate after 5 mins by spectrophotometric analysis
[2] = target: T1, Tyrosine-protein phosphatase non-receptor type 2 (Homo sapiens, UniProt P17706); experiment: Inhibition of TCPTP (unknown origin) expressed in Escherichia coli using pNPP substrate after 5 mins by spectrophotometric analysis
T1 sequence (P17706 whole entry): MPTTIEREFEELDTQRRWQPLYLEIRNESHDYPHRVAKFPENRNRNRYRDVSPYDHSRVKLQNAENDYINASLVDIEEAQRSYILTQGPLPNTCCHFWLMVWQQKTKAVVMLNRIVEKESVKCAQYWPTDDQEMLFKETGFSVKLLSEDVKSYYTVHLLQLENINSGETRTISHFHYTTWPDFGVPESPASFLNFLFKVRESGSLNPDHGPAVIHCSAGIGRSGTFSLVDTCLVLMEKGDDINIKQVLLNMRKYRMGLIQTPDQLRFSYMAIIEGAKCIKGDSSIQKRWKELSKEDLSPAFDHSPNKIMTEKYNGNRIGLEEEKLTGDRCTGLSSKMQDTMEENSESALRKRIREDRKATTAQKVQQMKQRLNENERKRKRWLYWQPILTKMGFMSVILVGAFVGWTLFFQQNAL

Laforin = target: T2, Laforin (Homo sapiens, UniProt O95278); experiment: Inhibition of Laforin (unknown origin) expressed in Escherichia coli using pNPP substrate after 5 mins by spectrophotometric analysis
T2 sequence (O95278 whole entry): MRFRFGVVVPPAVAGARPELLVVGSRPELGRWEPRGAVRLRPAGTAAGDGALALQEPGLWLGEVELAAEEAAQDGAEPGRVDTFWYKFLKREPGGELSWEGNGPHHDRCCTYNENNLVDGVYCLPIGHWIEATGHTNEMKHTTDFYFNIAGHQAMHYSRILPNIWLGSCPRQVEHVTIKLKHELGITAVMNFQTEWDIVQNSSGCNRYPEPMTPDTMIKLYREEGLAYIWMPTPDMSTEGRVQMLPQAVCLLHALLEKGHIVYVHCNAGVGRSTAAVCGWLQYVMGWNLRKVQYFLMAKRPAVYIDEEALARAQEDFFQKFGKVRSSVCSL

[3] = target: Receptor-type tyrosine-protein phosphatase alpha (Homo sapiens, UniProt P18433); experiment: Inhibition of PTPalpha (unknown origin) expressed in Escherichia coli using pNPP substrate after 5 mins by spectrophotometric analysis
Receptor-type tyrosine-protein phosphatase alpha, sequence (P18433 whole entry): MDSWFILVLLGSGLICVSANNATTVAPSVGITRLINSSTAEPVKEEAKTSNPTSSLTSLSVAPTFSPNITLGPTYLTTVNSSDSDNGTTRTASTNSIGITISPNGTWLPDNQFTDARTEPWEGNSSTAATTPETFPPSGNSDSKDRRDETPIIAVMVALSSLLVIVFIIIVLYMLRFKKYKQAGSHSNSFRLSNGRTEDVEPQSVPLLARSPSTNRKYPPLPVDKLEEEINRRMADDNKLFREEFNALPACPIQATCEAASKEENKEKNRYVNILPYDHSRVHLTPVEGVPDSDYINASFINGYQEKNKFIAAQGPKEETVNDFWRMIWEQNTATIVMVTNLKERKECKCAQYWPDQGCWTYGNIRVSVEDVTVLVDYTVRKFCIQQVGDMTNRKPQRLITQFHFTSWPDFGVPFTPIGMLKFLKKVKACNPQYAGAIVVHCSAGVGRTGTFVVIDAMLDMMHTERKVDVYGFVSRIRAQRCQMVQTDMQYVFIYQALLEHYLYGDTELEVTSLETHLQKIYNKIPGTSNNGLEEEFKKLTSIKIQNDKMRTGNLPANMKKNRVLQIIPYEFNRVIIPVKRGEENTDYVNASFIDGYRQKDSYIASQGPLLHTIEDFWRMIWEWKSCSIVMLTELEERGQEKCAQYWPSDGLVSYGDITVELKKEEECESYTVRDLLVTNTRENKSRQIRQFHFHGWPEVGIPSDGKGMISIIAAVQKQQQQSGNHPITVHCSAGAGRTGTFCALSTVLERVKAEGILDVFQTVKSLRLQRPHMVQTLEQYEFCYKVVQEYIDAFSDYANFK

Receptor-type tyrosine-protein phosphatase F, sequence (P10586 whole entry): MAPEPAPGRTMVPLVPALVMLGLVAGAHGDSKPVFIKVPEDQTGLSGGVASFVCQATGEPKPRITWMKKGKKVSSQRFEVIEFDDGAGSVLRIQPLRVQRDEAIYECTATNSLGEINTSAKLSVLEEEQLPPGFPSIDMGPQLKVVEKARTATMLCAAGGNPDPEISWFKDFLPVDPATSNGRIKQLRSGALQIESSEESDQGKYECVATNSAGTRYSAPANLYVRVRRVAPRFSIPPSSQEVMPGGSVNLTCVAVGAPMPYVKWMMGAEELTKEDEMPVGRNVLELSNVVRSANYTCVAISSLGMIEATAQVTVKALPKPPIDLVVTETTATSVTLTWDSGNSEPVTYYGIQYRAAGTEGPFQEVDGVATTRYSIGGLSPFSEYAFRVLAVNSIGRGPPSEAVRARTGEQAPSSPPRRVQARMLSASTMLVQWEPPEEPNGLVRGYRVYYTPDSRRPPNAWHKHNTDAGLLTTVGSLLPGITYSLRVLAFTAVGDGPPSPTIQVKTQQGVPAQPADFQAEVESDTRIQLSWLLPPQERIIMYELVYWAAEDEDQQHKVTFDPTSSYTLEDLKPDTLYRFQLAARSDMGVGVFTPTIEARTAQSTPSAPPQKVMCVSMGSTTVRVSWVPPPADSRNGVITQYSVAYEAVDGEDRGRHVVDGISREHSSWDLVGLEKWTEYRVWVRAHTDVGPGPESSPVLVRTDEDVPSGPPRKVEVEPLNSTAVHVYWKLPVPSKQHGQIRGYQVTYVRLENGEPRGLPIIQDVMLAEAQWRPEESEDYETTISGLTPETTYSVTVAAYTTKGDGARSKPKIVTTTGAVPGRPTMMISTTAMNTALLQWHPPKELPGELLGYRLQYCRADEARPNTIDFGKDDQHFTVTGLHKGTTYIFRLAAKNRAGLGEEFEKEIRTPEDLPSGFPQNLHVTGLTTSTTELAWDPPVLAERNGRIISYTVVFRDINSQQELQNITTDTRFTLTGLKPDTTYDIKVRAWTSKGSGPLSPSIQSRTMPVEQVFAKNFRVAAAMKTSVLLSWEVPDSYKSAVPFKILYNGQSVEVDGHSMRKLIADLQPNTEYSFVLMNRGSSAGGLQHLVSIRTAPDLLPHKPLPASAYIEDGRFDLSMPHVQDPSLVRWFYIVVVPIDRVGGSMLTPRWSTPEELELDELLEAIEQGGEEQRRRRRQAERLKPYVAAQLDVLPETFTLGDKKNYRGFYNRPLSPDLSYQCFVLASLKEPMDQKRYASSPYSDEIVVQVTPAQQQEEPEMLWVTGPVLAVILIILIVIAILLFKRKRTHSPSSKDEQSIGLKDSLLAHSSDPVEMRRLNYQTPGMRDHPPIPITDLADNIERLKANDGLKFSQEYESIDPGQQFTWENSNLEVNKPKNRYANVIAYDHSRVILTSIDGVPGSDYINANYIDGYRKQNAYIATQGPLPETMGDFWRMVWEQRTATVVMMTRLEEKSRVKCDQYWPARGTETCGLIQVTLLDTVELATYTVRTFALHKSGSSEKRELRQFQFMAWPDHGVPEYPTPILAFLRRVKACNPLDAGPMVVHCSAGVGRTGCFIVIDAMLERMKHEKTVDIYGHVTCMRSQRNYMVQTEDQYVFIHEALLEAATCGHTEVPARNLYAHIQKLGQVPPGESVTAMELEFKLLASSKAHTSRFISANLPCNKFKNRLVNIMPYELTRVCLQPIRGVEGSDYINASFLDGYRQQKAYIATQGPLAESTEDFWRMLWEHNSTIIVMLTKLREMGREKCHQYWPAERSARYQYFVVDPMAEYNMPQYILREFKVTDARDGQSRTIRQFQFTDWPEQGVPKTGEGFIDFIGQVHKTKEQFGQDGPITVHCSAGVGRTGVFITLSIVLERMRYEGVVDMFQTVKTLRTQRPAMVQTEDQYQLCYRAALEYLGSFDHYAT

IC50 [1]: > 10 µM
IC50 [2]: 6.1 µM
IC50 (Laforin): > 30 µM
IC50 [3]: > 10 µM
SMILES: O=C(O)c1cc2c(C#Cc3cc(F)cc(F)c3)c(-c3ccccc3)oc2cc1O
